Experimental data from patent US20100216706A1, “Ghrelin Protects Substantia Nigra Dopamine Neurons” (priority 2007, published 2010).
No end group written: not given here. *: point of attachment. Octanoyl = CCCCCCCC(=O)*

Columns and labels:
[1] = system: SNpc DA neurons mitochondria; assay: Mitochondria number in SNpc DA perikarya (electron microscopy); format: in vivo, mice
Text: Mitochondria number: Animals were perfused and their brains were processed for TH immunolabeling for electron microscopic examination. Ultrathin sections were cut on a Leica ultra microtome, collected on Formvar-coated single-slot grids and analyzed with a Tecnai 12 Biotwin (FEI Company) electron microscope. Mitochondria were counted blindly from randomly selected sections, and Scion Image was used to normalize cytoplasmic area so that mitochondrial number per cell is expressed in square micrometers.
Given that ghrelin induces mitochondrial respiration as described above, an experiment was performed to test whether ghrelin could also alter mitochondrial number in the SNpc DA perikarya. […]
Therefore, an experiment was performed to test whether ghrelin increases mitochondrial number in the SNpc dopamine neurons. […] In line with this, UCP2 ko mice show reduced mitochondrial number in the SNpc dopamine neurons, which predisposes them to environmental toxins (Andrews et al., 2005, J Neurosci 25:184-191). Furthermore, mitochondrial dysfunction lies at the very heart of Parkinson's disease (Lin et al., 2006, Nature 443:787-795).

[2] = system: UCP2-dependent mitochondrial respiration; assay: Uncoupled mitochondrial respiration in pooled midbrain of UCP2 wt or ko mice; format: in vivo; details: ghrelin IP 30 nmol, 3 hours
Description: Rats were used as the mitochondrial yield after isolation is much higher than the yield from mice. Mitochondrial respiration was also examined in the pooled midbrain of UCP2 ko and wt mice (3 pooled brains), 3 hours after ghrelin injection (IP 30 nmol).
Mitochondria were pooled from the SN-VTA (4 animals=1, total n=4) and isolated by differential centrifugation. Because of the size of the tissue dissected, it was impossible to solely isolate only the SNc, and as such the results are reported as SN-VTA. Briefly, the SN-VTA was rapidly dissected and homogenized in isolation buffer (215 mM Mannitol, 75 mM sucrose, 0.1% fatty acid free BSA, 20 mM Hepes, 1 mM EGTA, pH adjusted to 7.2 with KOH). The homogenate was spun at 1300×g for 3 minutes. The supernatant was removed, and the pellet was resuspended with isolation buffer and spun again at 1300×g for 3 minutes. The 2 sets of supernatant from each sample were topped off with isolation buffer and spun at 13000×g for 10 minutes. The supernatant was discarded, and this step was repeated. After this second spin at 13000×g, the supernatant was discarded, and the pellets were resuspended with isolation buffer without EGTA and spun at 10000×g for 10 minutes. The final mitochondrial pellet was resuspended with 50 μl of isolation buffer without EGTA. Protein concentrations were determined with a BCA protein assay kit (Pierce, Rockford, Ill., USA).
Mitochondrial respirations were assessed using a Clark-type oxygen electrode (Hansatech Instruments, Norfolk, England) at 37° C. with pyruvate and malate (5 mM and 2.5 mM) as oxidative substrates in respiration buffer (215 mM Mannitol, 75 mM sucrose, 0.1% fatty acid free BSA, 20 mM Hepes, 2 mM MgC1, 2.5 mM KH2PO4, pH adjusted to 7.2 with KOH). Following the addition of ADP and oligomycin, UCP-mediated proton conductance was measured as increased fatty acid-induced respiration (Echtay et al., 2002), which was then compared to state 4 respiration induced by oligomycin, an inhibitor of H^+ transporting ATP synthase.
To test whether UCP2 is important in ghrelin-induced midbrain respiration, mitochondria were isolated from the midbrain of pooled UCP2 wt or ko mice treated with ghrelin or saline, and uncoupled respiration was measured.

[3] = system: tyrosine hydroxylase (TH) mRNA; assay: TH mRNA expression in the midbrain (real-time PCR); format: in vivo; details: three hours after ghrelin injection (10 nmols), wild-type mice; saline 1.03±0.15
Description: Real-time PCR: RNA was extracted from the midbrain of 8 ghrelin-treated mice or 8 saline-treated mice using TRIzol® (Invitrogen, Carlsbad, Calif.) according to the manufacturer's instructions. cDNA was synthesized using the First-Strand cDNA synthesis kit (Amersham Biosciences), using a total of 3 μg of total RNA in 15 μl of total volume. Real-time PCR analysis of TH mRNA (SEQ ID NO. 4: 5′ […] 3′; SEQ ID NO. 5: 5′ […] 3′) was performed using iQ SYBR green supermix (Bio-Rad) and […] of each primer. Primers for 18S were used as controls. Measurements were performed on an iCycler (Bio-Rad).
Tyrosine hydroxylase (TH) is the rate limiting enzyme of dopamine biosynthesis. An experiment was performed to examine whether ghrelin alters TH mRNA expression in the midbrain.

SNpc DA neurons = assay: Whole-cell patch clamp, action potential firing of SNpc DA neurons in brain slices; format: cell-based, mice and rats
Description: Patch clamp recordings from VTA dopamine neurons: Brain slices (300 μm) containing the substantia nigra pars compacta (SNpc), were cut on a vibratome from 2-3 week old male and female mice (n=9) and rats (n=5). Briefly, animals were anesthetized with Nembutal (80 milligram/kilogram body weight) and then decapitated. The brains were rapidly removed and immersed in cold (4° C.) oxygenated bath solution (containing (mM): NaCl 150; KCl 2.5; CaCl2 2; MgCl2 2; Hepes 10; and glucose 10, pH 7.3 with NaOH). After being trimmed to contain only the SNpc, slices were transferred to a recording chamber where they were constantly perfused with bath solution at 2 milliliter/minute. Dopamine neurons in the SNpc were identified by presence of a large Ih current (>100 pA) evoked by hyperpolarizing voltage steps from −50 to −120 mV for 2 seconds. This approach identifies dopaminergic cells with >90% accuracy (Abizaid et al., 2006, J Clin Invest. 116(12):3229-39. Epub 2006 Oct. 19). In brain slices, whole-cell current clamp was used to observe spontaneous action potentials. Slices were maintained at 33° C. and perfused continuously with ASCF (bubbled with 5% CO2 and 95% O2) containing (in mM): NaCl, 124; KCl, 3; CaCl2, 2; MgCl2, 2; NaH2PO4, 1.23; NaHCO3, 26; glucose, 10, pH 7.4 with NaOH. Ghrelin was applied to the recording chamber via bath application. The pipette solution contained (mM): gluconic acid 140; CaCl2, MgCl2 2; EGTA 1; HEPES 10; Mg-ATP; 4, and Na2-GTP; 0.5, pH 7.3 with KOH
To address this question, an experiment using whole-cell patch clamp electrophysiology was performed to investigate whether ghrelin directly activates SNpc DA neurons. DA neurons (n=11) in the SNpc were identified based on their characteristic Ih currents (Johnson et al., 1992, J Neurosci 12: 483-8). Spontaneous action potentials were recorded under current clamp for at least 10 minutes of stable recording. Ghrelin (1-3 μmol) was applied via bath application.

## ghrelin (GSS(Octanoyl)FLSPEHQRVQQRKESKKPPAKLQPR; listed as Homo sapiens) [28 amino acid acyl-peptide esterified with octanoic acid on Ser3; endogenous ligand of GHSR]
[1]; mice, three hours after ghrelin injection, saline 0.46±0.03
  Mitochondrial number in DA perikarya of the SNpc: 0.62±0.03 μm^2
[1]; two hours after ghrelin injection, saline 0.45±0.03
  Mitochondrial number in SNpc dopamine neurons, UCP2 ko mice: 0.39±0.03 μm^2
[1]; two hours after ghrelin injection, saline 0.46±0.03
  Mitochondrial number in SNpc dopamine neurons, UCP2 wt mice: 0.62±0.03 μm^2
[2]; ko saline 34.2±2.6
  Basal uncoupled respiration after oligomycin, UCP2 ko mice: 39.2±0.4
[2]; ko saline 96.0±7.5
  Mitochondrial respiration after palmitate, UCP2 ko mice: 109.7±2.9
[2]; wt saline 32.7±1.6
  Basal uncoupled respiration after oligomycin, UCP2 wt mice: 41.5±1.9
[2]; wt saline 106.3±5.3
  Mitochondrial respiration after palmitate, UCP2 wt mice: 134.5±4.5
[2]; wt saline 352±14.1
  FCCP-driven respiration, UCP2 wt mice: 472±12.7
[3]
  TH mRNA expression in the midbrain: 2.86±0.46
SNpc DA neurons; ghrelin 1-3 μmol bath application, control 100%
  Action potential frequency: 131.9%±17.5
SNpc DA neurons; ghrelin bath application
  Identified DA neurons that responded: 10 of 11
SNpc DA neurons; washout of ghrelin, control 100%
  Action potential frequency after washout: 101.9%±4.6
